From patent publication US12370202B2, “Methods and compositions for inhibiting the NLRP3 inflammasome and/or LON protease” (TRITERPENOID THERAPEUTICS, INC., priority 2019, dated 2025)

Key:
Type in all cases: cell-based, human
CP10 = test: Ovarian cancer cell growth (confluence), IncuCyte ZOOM
Excerpt: (§1) FIG. 11 is a set of line graphs. Cisplatin resistant human ovarian cancer cell lines A2780, CP70, OV81, CP10, OVCAR-5 and OVCAR-8 were exposed to CDDO-2P-Im, cisplatin, or a combination of CDDO-2P-Im and cisplatin.
(§2) CDDO-2P-Im suppresses growth of cisplatin-resistant human ovarian cancer cells in vitro. Cisplatin resistant human ovarian cancer cell lines A2780, CP70, OV81, CP10, OVCAR-5 and OVCAR-8 cell were each cultured in a complete medium consisting of RPMI1640, 20% heat-inactivated FBS, 1% penicillin/streptomycin. Cells were cultured in a water jacketed CO2 incubator at 37° C. in a humidified atmosphere consisting of 5% CO2 and 95% air. Continuous live-cell analysis (CLCA) was used as a non-invasive cell monitoring and measurement method based on time-lapse, phase-contrast microscopy and fluorescence imaging, using IncuCyte® ZOOM. Cells were seeded in 96-well plates at densities of either 1×10^4 or 3×10^4 cell/cm^2 followed by addition of a drug dilution series for either CDDO-2P-Im or Cisplatin (P4394, Sigma) dissolved in PBS and diluted in media. […] Reduction in confluence is accompanied by the detachment and death of ovarian cancer cells.

OV81 = test: as above
Excerpt: as §1, §2

CP70 = test: as above
Excerpt: as §1, §2

A2780 = test: as above
Excerpt: as §1, §2

OVCAR-8 = test: as above
Excerpt: as §1, §2

OVCAR-5 = test: as above
Excerpt: as §1, §2

ARH77 cells = test: MM cell proliferation (confluence), IncuCyte imaging; details: 72 hours
Description: (§3) FIG. 2 is a bar graph. CDDO-2P-Im inhibits proliferation of multiple myeloma cell line in vitro. 5T33MM, RPMI8226, and ARH77 cells were seeded in 96-well plates and incubated with CDDO-2P-Im (50 nM-150 nM). Confluence (cell proliferation) was measured using IncuCyte imaging after 72 hours. *p<0.01 compared to control.
(§4) FIG. 3 is a bar graph. […] Shown here are results for 5T33MM (50 nM TTX01/7.5 nM IXZ); RPMI8226 (100 nM TTX01/7.5 nM IXZ); and ARH77 (150 nM TTX01/10 nM IXZ). Confluence (cell proliferation) was measured using IncuCyte imaging after 72 hours.
(§5) To examine tumor-intrinsic effects of CDDO-2P-IM in the 5T33MM cell line and in human MM cells, conducted a series of in vitro studies was conducted. For these experiments, 96-well plates were first coated in poly-L-ornithine before cells were seeded (in triplicate), including the murine 5T33MM and the human RPMI8226, and ARH77 cell lines (15,000 cells per well). Cells were incubated in IncuCyte™ Live-Cell Analysis System for 72 hours (images were taken every 4 hours). To define dose-dependent effect of CDDO-2P-IM, cells were exposed to concentrations ranging from 50 nM to 150 nM. To examine potential synergy of CDDO-2P-IM with IXZ, MM cells were exposed to IXZ (7 nM-10 nM) either alone or in combination with CDDO-2P-IM.

RPMI8226 cells = test: as above; details: 72 hours
Description: as §3, §4, §5

[1] = suboptimal doses combined with cisplatin, significance at 0.005 or greater

## CC1(C)CC[C@]2(C(=O)n3cnc(-c4ccccn4)c3)CC[C@]3(C)[C@H](C(=O)C=C4[C@@]5(C)C=C(C#N)C(=O)C(C)(C)[C@@H]5CC[C@]43C)[C@@H]2C1 [CDDO-2P-Im, 1-[2-Cyano-3,12-dioxooleana-1,9(11)-dien-28-oyl]-4(-pyridin-2-yl)-1H-imidazole]
CP10
  sensitivity (growth): highly sensitive
CP10; [1]
  ovarian cancer cell kill, combination with cisplatin: significant gain
OV81
  sensitivity (growth): highly sensitive
OV81; [1]
  ovarian cancer cell kill, combination with cisplatin: significant gain
CP70; nanomolar concentrations
  growth (confluence): suppressed growth in a dose-dependent manner
CP70; [1]
  ovarian cancer cell kill, combination with cisplatin: significant gain
A2780; nanomolar concentrations
  growth (confluence): suppressed growth in a dose-dependent manner
A2780; [1]
  ovarian cancer cell kill, combination with cisplatin: significant gain
OVCAR-8
  sensitivity (growth): highly sensitive
OVCAR-8; [1]
  ovarian cancer cell kill, combination with cisplatin: significant gain
OVCAR-5
  sensitivity (growth): highly sensitive
OVCAR-5; [1]
  ovarian cancer cell kill, combination with cisplatin: significant gain
ARH77 cells; 50 nM-150 nM
  proliferation (confluence): significant dose-dependent suppressive effects
ARH77 cells; 150 nM TTX01/10 nM IXZ
  proliferation (confluence), combination with IXZ: act synergistically
ARH77 cells; 150 nM TTX01 or 10 nM IXZ alone
  proliferation (confluence), agent added alone: only partially effective
RPMI8226 cells; 50 nM-150 nM
  proliferation (confluence): significant dose-dependent suppressive effects
RPMI8226 cells; 100 nM TTX01/7.5 nM IXZ
  proliferation (confluence), combination with IXZ: act synergistically
RPMI8226 cells; 100 nM TTX01 or 7.5 nM IXZ alone
  proliferation (confluence), agent added alone: only partially effective
